“Also recorded” adds a separate entry of the source.
Columns and labels:
[1] = test system: oligodendrocytes (CNP positive cells); assay: Oligodendrocyte density (CNP positive cells) in white matter, mouse model of chronic hypoxia; type: in vivo, mice; details: Hx-BH4 vs Hx; 10.5% FiO2 postnatal day 3 to 11; n=3-6 each
Source text: (§1) FIG. 3. Correspondence between human and rodent gestation periods. Regarding WM development, postnatal days 3-11 in mice correspond to the 3rd trimester of human pregnancy. The murine model was used by the inventors to investigate the effects of hypoxia and treatment of hypoxia by BH4. A mouse model of chronic hypoxia during a period that corresponds to the 3rd trimester in human white matter development is described by […], et al ^47 and by Raymond, et al. ^48, both of which are incorporated by reference. Three groups of mice: Normoxic controls (Nx), Hypoxic (Hx), Hypoxic treated with BH4 (Hx-BH4). Hx and Hx-BH4 mice were kept at 10.5% FiO2 from postnatal day 3 to 11-a period of WM development equivalent to the 3rd trimester in humans as illustrated by FIG. 3. BH4 brain levels were quantified and compared between Nx (n=11) and Hx (n=12). Densities of cells expressing CNP, a marker of oligodendrocytes which are cells responsible for myelination, and Caspase3, an apoptosis marker, were compared between all groups (n=3-6 each). Expression of myelin basic protean, a myelination marker, was quantified using Western Blot (n=7-12 each).

[2] = test system: apoptotic cells (Caspase3 positive); assay: Apoptotic cell density (Caspase3 positive) in white matter, mouse model of chronic hypoxia; type: in vivo, mice
Source text: as §1

Myelin Basic Protein = assay: Expression of myelin basic protein (Western blot, immunohistochemistry), mouse model of chronic hypoxia; type: in vivo, mice
Source text: as §1

[3] = cited from earlier work
[4] = in vivo; cited from earlier work
WM integrity and damage = details: in vivo; cited from earlier work

For `C[C@H](O)[C@H](O)[C@H]1CNc2nc(N)[nH]c(=O)c2N1` [BH4, Tetrahydrobiopterin], the “Effect of BH4 treatment on hypoxia-induced increase of oligodendrocyte density” value [1] was “not limited by BH4 therapy; also recorded: did not limit this effect”, the “Effect of BH4 treatment on hypoxia-increased WM apoptosis (apoptotic cell density)” value ([2]; Hx-BH4 vs Hx, p=0.01, 10.5% FiO2 postnatal day 3 to 11, n=3-6 each) was “mitigate this effect; also recorded: decreased with BH4 treatment” and the “Apoptotic cell density, Hx-BH4 compared with normoxic controls” value ([2]; Hx-BH4 vs Nx) was “no difference in apoptotic cell density between Nx and Hx-BH4”. The “Effect of BH4 treatment on hypoxia-decreased expression of myelin basic protein” value (Myelin Basic Protein; Hx-BH4 vs Hx, p=0.006, 10.5% FiO2 postnatal day 3 to 11, n=7-12 each) was “mitigated by BH4 therapy; also recorded: increased with BH4 treatment”, the “Expression of myelin basic protein, Hx-BH4 compared with normoxic controls” value (Myelin Basic Protein; Hx-BH4 vs Nx) was “no significant difference between normoxic controls (Nx) and hypoxic mice treated with BH4 (Hx-BH4)” and the “Safety and tolerability in long-term follow-up studies” value ([3]; humans, wide range of doses) was “safe and well tolerated”. For the same compound, the Teratological effects ([3]; in vivo) was “no teratological effects have been documented”, the “Maternal BH4 treatment in pregnant females” value ([3]; recent trials) was “efficient and safe” and the “Placental crossing and fetal tissue distribution” value [4] was “crosses the placenta and distributes throughout fetal tissues, including the brain”. The “WM integrity and damage in children with phenylketonuria treated early” value (WM integrity and damage) was “Improvements of WM integrity and damage”.
